Read-outs that look alike come from different tables or passages of the source.
What was measured:
UGT2B7 [1] = molecular target: T1, UGT2B7 (Homo sapiens, UniProt P16662); assay: Ki determination of aprepitant on 4-MU-G, M-6-G and AZT-G formation in UGT2B7
T1 sequence (P16662 24-529): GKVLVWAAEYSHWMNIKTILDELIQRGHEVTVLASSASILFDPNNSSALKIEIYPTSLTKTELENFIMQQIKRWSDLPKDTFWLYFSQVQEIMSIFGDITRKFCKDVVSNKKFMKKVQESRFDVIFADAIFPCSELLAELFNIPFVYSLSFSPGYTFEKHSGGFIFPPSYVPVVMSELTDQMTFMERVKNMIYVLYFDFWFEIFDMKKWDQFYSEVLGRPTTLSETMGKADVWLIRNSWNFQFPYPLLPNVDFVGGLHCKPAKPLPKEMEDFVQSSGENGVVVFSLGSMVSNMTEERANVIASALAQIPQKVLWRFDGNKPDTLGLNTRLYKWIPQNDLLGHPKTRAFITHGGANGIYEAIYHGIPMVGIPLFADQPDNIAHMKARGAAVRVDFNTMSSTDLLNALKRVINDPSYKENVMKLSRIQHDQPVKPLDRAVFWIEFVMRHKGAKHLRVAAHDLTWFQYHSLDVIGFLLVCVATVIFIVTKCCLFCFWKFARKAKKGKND

UGT2B4 = molecular target: T2, UGT2B4 (Homo sapiens, UniProt P06133); assay: Screening for aprepitant glucuronidation, UGT2B4 Supersomes; type: in vitro ADME; settings: UGT2B4, 5 and 250 µM aprepitant
T2 sequence (P06133 24-528): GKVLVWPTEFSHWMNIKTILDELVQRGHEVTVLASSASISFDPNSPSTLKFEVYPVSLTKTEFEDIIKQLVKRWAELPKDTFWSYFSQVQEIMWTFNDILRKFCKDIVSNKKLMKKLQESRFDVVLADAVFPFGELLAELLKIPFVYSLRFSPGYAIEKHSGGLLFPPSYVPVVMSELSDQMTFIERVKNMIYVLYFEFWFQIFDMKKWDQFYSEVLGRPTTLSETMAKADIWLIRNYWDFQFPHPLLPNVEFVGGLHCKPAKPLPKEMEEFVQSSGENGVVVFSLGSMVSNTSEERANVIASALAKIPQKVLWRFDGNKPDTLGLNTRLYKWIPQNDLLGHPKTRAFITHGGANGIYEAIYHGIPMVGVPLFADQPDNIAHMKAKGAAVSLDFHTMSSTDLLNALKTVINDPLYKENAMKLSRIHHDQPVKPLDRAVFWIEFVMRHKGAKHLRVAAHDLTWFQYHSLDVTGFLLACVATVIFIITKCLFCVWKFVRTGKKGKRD

UGT1A1 = molecular target: T3, UGT1A1 (Homo sapiens, UniProt P22309); assay: Screening for aprepitant glucuronidation, UGT1A1 Supersomes; type: in vitro ADME; settings: UGT1A1, 5 and 250 µM aprepitant
T3 sequence (P22309 26-533): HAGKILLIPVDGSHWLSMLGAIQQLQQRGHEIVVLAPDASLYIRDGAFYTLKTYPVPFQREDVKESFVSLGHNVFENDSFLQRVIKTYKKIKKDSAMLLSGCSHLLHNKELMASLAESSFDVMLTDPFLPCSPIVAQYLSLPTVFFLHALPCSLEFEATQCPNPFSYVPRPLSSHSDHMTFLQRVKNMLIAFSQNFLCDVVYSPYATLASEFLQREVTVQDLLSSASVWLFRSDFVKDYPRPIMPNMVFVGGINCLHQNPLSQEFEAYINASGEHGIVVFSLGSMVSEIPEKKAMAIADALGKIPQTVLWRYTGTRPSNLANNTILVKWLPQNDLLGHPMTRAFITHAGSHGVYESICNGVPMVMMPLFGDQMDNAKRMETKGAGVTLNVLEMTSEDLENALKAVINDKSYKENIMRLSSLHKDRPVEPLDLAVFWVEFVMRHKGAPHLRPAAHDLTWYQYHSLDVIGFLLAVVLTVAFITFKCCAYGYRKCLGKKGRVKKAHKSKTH

UGT1A10 = molecular target: T4, UGT1A10 (Homo sapiens, UniProt Q9HAW8); assay: Screening for aprepitant glucuronidation, UGT1A10 Supersomes; type: in vitro ADME; settings: UGT1A10, 5 and 250 µM aprepitant
T4 sequence (Q9HAW8 26-530): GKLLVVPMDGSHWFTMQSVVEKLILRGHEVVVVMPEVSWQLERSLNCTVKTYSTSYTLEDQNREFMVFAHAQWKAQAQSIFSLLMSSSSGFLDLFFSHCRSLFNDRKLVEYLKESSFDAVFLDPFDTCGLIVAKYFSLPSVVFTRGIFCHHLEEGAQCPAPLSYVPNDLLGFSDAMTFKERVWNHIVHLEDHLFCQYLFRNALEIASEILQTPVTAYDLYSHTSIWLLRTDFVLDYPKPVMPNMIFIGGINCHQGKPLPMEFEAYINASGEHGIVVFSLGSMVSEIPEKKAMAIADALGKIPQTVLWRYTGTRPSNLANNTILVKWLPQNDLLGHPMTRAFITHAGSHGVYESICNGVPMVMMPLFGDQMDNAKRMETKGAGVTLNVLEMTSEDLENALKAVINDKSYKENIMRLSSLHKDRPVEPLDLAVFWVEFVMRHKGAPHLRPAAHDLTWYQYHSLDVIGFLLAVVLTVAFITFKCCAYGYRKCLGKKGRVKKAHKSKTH

UGT1A3 = molecular target: T5, UGT1A3 (Homo sapiens, UniProt P35503); settings: pH 7.5; for velocity of AP-G formation: 60 min
T5 sequence (P35503 29-534): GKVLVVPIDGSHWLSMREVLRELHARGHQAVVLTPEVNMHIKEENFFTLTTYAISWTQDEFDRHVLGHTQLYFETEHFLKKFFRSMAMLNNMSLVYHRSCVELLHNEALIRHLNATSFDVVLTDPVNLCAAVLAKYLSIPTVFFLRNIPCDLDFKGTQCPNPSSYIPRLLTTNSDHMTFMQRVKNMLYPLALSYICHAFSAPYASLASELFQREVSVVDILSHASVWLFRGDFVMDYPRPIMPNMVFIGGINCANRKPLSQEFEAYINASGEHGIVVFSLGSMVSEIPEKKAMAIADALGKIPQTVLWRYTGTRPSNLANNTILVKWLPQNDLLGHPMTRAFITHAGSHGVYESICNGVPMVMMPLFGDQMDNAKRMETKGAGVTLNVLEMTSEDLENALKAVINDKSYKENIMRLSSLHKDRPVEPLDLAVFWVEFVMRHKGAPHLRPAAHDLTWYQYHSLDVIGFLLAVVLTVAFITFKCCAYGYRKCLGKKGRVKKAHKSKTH

[2] = tested on: human intestinal microsomes (HIM)
UGT2B7 [3] = molecular target: T1, UGT2B7; assay: Inhibition by aprepitant of UGT2B7; type: in vitro ADME; settings: UGT2B7 enzyme, pH 7.5, probe 4-MU

`C[C@@H](O[C@H]1OCCN(Cc2n[nH]c(=O)[nH]2)[C@H]1c1ccc(F)cc1)c1cc(C(F)(F)F)cc(C(F)(F)F)c1` [aprepitant, Aprepitant] was tested, and the inhibition model (UGT2B7 [1]; UGT2B7, substrate 4-MU) was “competitive inhibition model”, the inhibition model (UGT2B7 [1]; UGT2B7, substrate AZT) was “competitive inhibition model” and the inhibition model (UGT2B7 [1]; UGT2B7, substrate morphine) was “noncompetitive model”. For the same compound, the AP-G formation (UGT2B4) was “not detected”, the AP-G formation (UGT1A1) was “not detected” and the AP-G formation (UGT1A10) was “not detected”. The “velocity of AP-G formation” value (UGT1A3; 5 µM) was 44.1 ± 0.7 fmol/min/mg protein, the “velocity of AP-G formation” value (UGT1A3; 250 µM) was 717.3 ± 18.6 fmol/min/mg protein and the CLint (UGT1A3; recombinant enzyme) was 15 µl/min/µg protein. The Vmax ([2]; HIM, mean ± SE) was 352 ± 8 fmol/min/mg protein, the “velocity of AP-G formation” value ([2]; human, 60 min, 250 µM, pH 7.5) was 278.3 ± 1.9 fmol/min/mg protein and the inhibition at 1 µM (UGT2B7 [3]) was roughly 17%. For the same compound, the inhibition at 10 µM (UGT2B7 [3]) was 70%.

From publication PMC4844176 (Xenobiotica; the fate of foreign compounds in biological …, 2015)
